Results as given in patent US20200331882A1, “COMPOUND FOR SIMULTANEOUSLY INHIBITING LSD1 AND HDAC TARGETS AND APPLICATION THEREOF” (PEKING UNIVERSITY SHENZHEN GRADUATE SCHOOL, priority 2018, published 2020).
Like-named read-outs stand apart in the source and are kept apart here.

What was measured:
HT-1376 = assay: CellTiter-Glo cell proliferation; type: cell-based; settings: CTG, 72 hours; for % inhibition at top conc.: highest concentration 10/50 μM; for IC50: read-out: Absolute IC50
Description: (§1) The effect of the present invention compound ZZY-003 on the cell proliferation of 50 cell lines was evaluated by CellTiter-Glo (CTG) method, and the 50% inhibitory concentration was calculated by detecting the cell viability after treatment with different drug concentrations. The cells were resuscitated and cultured in their respective culture media. The cells in logarithmic growth phase were harvested and the cells were counted by cell counter. The cell viability was detected by Trypan blue exclusion method to ensure that the cell line viability was more than 96%. The cell concentration was adjusted by diluting with the culture medium, and 90 μL cell suspension was added to the 96-well cell plate (including the cell control T0 on the day of drug treatment) to make the cell density reach the specified concentration. The cells in the 96-well plate were cultured overnight at 37° C., 5% CO2 and 95% humidity. 10 μL culture medium was added to the control cell culture plate. CellTiter-Glo reagent and cell culture plate were placed at room temperature to balance for 30 minutes. The same volume of CellTiter-Glo reagent was added to each well. Vibrate on the orbital shaker for 2 min to make the cells fully lytic. The cell culture plate was placed at room temperature to balance for 10 minutes. Chemiluminescence values were read with EnVision. The storage solution was formed by dissolving the tested compound with the corresponding solvent and diluted in gradient to obtain 10 times working concentration solution, and 10 times solution of positive drug was also prepared. 10 μL drug solution was added to each well in the 96-well plate in which the cells were inoculated, and each cell concentration was provided with three duplicate wells. The highest concentration of the tested compound was 10/50 μM, 9 concentrations and 3.16 times dilution. The cells in the 96-well plate added with drug were cultured at 37° C., 5% CO2 and 95% humidity for 72 hours. CellTiter-Glo reagent and drug-treated cell culture plate were placed at room temperature to balance for 30 minutes. The same volume of CellTiter-Glo reagent was added to each well. Vibrate on the orbital shaker for 2 minutes to make the cells fully lytic. The cell culture plate was placed at room temperature to balance for 10 minutes. Chemiluminescence values were read with EnVision. Data processing: […] Cell survival rate (%)=(Lum drug to be detected−Lum culture medium control)/(Lum cell control−Lum culture medium control)×100%; Lum cell control−Lum culture medium control was set to 100%, LumMedium control value was set to 0%;

U266B1 = assay: CellTiter-Glo cell proliferation; type: cell-based; settings: CTG, 72 hours; for % inhibition at top conc.: highest concentration 10/50 μM; for IC50: read-out: Absolute IC50
Description: as §1

UO.31 = assay: CellTiter-Glo cell proliferation; type: cell-based; settings: CTG, 72 hours; for % inhibition at top conc.: highest concentration 10/50 μM; for IC50: read-out: Absolute IC50
Description: as §1

NCI-H82 = assay: CellTiter-Glo cell proliferation; type: cell-based; settings: CTG, 72 hours; for % inhibition at top conc.: highest concentration 10/50 μM; for IC50: read-out: Absolute IC50
Description: as §1

LN-229 = assay: CellTiter-Glo cell proliferation; type: cell-based; settings: CTG, 72 hours; for % inhibition at top conc.: highest concentration 10/50 μM; for IC50: read-out: Absolute IC50
Description: as §1

PC-3 = assay: CellTiter-Glo cell proliferation; type: cell-based; settings: CTG, 72 hours; for % inhibition at top conc.: highest concentration 10/50 μM; for IC50: read-out: Absolute IC50
Description: as §1

U-937 = assay: CellTiter-Glo cell proliferation; type: cell-based; settings: CTG, 72 hours; for % inhibition at top conc.: highest concentration 10/50 μM; for IC50: read-out: Absolute IC50
Description: as §1

A549 = assay: CellTiter-Glo cell proliferation; type: cell-based; settings: CTG, 72 hours; for % inhibition at top conc.: highest concentration 10/50 μM
Description: as §1

MOLM-13 = assay: CellTiter-Glo cell proliferation; type: cell-based; settings: CTG, 72 hours; for % inhibition at top conc.: highest concentration 10/50 μM; for IC50: read-out: Absolute IC50
Description: as §1

SNU-5 = assay: CellTiter-Glo cell proliferation; type: cell-based; settings: CTG, 72 hours; for % inhibition at top conc.: highest concentration 10/50 μM; for IC50: read-out: Absolute IC50
Description: as §1

HuCCT1 = assay: CellTiter-Glo cell proliferation; type: cell-based; settings: 72 hours; for % inhibition at top conc.: highest concentration 10/50 μM; for IC50: read-out: Absolute IC50
Description: as §1

SNU-761 = assay: CellTiter-Glo cell proliferation; type: cell-based; settings: CTG, 72 hours; for % inhibition at top conc.: highest concentration 10/50 μM; for IC50: read-out: Absolute IC50
Description: as §1

MDA-MB-231 = assay: CellTiter-Glo cell proliferation; type: cell-based; settings: CTG, 72 hours; for % inhibition at top conc.: highest concentration 10/50 μM
Description: as §1

SU-DHL-6 = assay: CellTiter-Glo cell proliferation; type: cell-based; settings: CTG, 72 hours; for % inhibition at top conc.: highest concentration 10/50 μM; for IC50: read-out: Absolute IC50
Description: as §1

PANC-1 = assay: CellTiter-Glo cell proliferation; type: cell-based; settings: CTG, 72 hours; for % inhibition at top conc.: highest concentration 10/50 μM; for IC50: read-out: Absolute IC50
Description: as §1

786-O = assay: CellTiter-Glo cell proliferation; type: cell-based; settings: 72 hours; for % inhibition at top conc.: highest concentration 10/50 μM; for IC50: read-out: Absolute IC50
Description: as §1

5637 = assay: CellTiter-Glo cell proliferation; type: cell-based; settings: CTG, 72 hours; for % inhibition at top conc.: highest concentration 10/50 μM; for IC50: read-out: Absolute IC50
Description: as §1

B16-F10 = assay: CellTiter-Glo cell proliferation; type: cell-based; settings: CTG, 72 hours; for % inhibition at top conc.: highest concentration 10/50 μM; for IC50: read-out: Absolute IC50
Description: as §1

NCI-H1417 = assay: CellTiter-Glo cell proliferation; type: cell-based; settings: CTG, 72 hours; for % inhibition at top conc.: highest concentration 10/50 μM; for IC50: read-out: Absolute IC50
Description: as §1

MDA-MB-453 = assay: CellTiter-Glo cell proliferation; type: cell-based; settings: CTG, 72 hours; for % inhibition at top conc.: highest concentration 10/50 μM; for IC50: read-out: Absolute IC50
Description: as §1

DLD-1 = assay: CellTiter-Glo cell proliferation; type: cell-based; settings: CTG, 72 hours; for % inhibition at top conc.: highest concentration 10/50 μM; for IC50: read-out: Absolute IC50
Description: as §1

HDAC1 = target: T1, HDAC1 (Homo sapiens, UniProt Q13547); assay: In vitro HDAC1 inhibitory activity, FLUOR DE LYS HDAC1 fluorometric assay kit; type: biochemical; settings: HDAC1 enzyme activity in vitro
T1 construct: purchased Enzo Biochem Inc
T1 sequence (Q13547 whole entry): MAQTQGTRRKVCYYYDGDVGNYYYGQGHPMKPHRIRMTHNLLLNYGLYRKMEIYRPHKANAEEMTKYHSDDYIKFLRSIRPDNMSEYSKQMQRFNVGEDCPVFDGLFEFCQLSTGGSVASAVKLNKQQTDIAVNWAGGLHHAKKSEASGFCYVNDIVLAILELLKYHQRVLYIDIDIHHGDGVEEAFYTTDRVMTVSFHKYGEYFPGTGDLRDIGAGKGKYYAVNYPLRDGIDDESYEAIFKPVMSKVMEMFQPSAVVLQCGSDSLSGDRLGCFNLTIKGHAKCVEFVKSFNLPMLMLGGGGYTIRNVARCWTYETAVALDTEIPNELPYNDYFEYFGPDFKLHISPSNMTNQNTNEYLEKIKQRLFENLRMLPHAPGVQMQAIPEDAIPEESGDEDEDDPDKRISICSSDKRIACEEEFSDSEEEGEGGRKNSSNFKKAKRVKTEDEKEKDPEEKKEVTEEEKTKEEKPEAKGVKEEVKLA
Source text: The principle was shown in the following reaction formula: HDAC1 catalyzes the deacetylation of a substrate FLUOR DE LYS® Substrate (containing an acetylated side chain), the product can react with FLUOR DE LYS® Developer II to generate fluorescence (shown in the following reaction process), and the inhibitory activity of a molecule to be detected on HDAC1 can be indirectly obtained by detecting the fluorescence intensity of the product. In this experiment, 360 nm was selected as the excitation wavelength and 460 nm as the emission wavelength for detection. FLUOR DE LYS® HDAC1 fluorometric drug discovery assay kit required for experiments was purchased from Enzo Biochem Inc.
During the test, the sample was prepared according to the specific experimental conditions of blocking the HDAC1 enzyme activity of the compound of the present invention in vitro in accordance with Table 2 below.

[1] = Homo sapiens, read-out: Absolute IC50

Compound: N.N.[Cl][Pt][Cl] [Cisplatin, reference compound]
- % inhibition at top conc. (HT-1376): 88.74%
- IC50 (HT-1376): 4.1 µM
- % inhibition at top conc. (U266B1): 98.85%
- IC50 (U266B1): 14.3 µM
- % inhibition at top conc. (UO.31): 97.89%
- IC50 (UO.31): 4.23 µM
- % inhibition at top conc. (NCI-H82): 99.63%
- IC50 (NCI-H82): 4 µM
- % inhibition at top conc. (LN-229): 97.32%
- IC50 (LN-229): 11.8 µM
- % inhibition at top conc. (PC-3): 85.52%
- IC50 (PC-3): 5.34 µM
- % inhibition at top conc. (U-937): 99.97%
- IC50 (U-937): 2.19 µM
- % inhibition at top conc. (A549): 96.72%
- % inhibition at top conc. (MOLM-13): 99.99%
- IC50 (MOLM-13): 0.77 µM
- % inhibition at top conc. (SNU-5): 97.87%
- IC50 (SNU-5): 2.45 µM
- % inhibition at top conc. (HuCCT1; CTG): 89.54%
- IC50 (HuCCT1; CTG): 11.3 µM
- % inhibition at top conc. (SNU-761): 99.92%
- IC50 (SNU-761): 4.52 µM
- % inhibition at top conc. (MDA-MB-231): 85.71%
- % inhibition at top conc. (SU-DHL-6): 99.95%
- IC50 (SU-DHL-6): 5.65 µM
- % inhibition at top conc. (PANC-1): 94.45%
- IC50 (PANC-1): 8.67 µM
- % inhibition at top conc. (786-O; CTG): 97.88%
- IC50 (786-O; CTG): 2.11 µM
- % inhibition at top conc. 5637: 99.05%
- IC50 5637: 2.6 µM
- % inhibition at top conc. (B16-F10): 99.97%
- IC50 (B16-F10): 4.53 µM
- % inhibition at top conc. (NCI-H1417): 81.11%
- IC50 (NCI-H1417): 4.4 µM
- % inhibition at top conc. (MDA-MB-453): 95.15%
- IC50 (MDA-MB-453): 12.9 µM
- % inhibition at top conc. (DLD-1): 98.93%
- IC50 (DLD-1): 5.3 µM

Compound: Cc1ccc(C(=O)Nc2cc(N3CCNCC3)ccc2-c2ccc(/C=C/C(=O)NO)cc2C)cc1.Cl [ZZY-003]
- IC50 (HDAC1): 0.18 µM
- % inhibition at top conc. (HT-1376): 99.41%
- IC50 (HT-1376; Homo sapiens): 2.28 µM
- % inhibition at top conc. (U266B1): 98.03%
- IC50 (U266B1): 0.64 µM
- % inhibition at top conc. (UO.31): 99.92%
- IC50 (UO.31; Homo sapiens): 4.56 µM
- % inhibition at top conc. (NCI-H82): 99.94%
- IC50 (NCI-H82; Homo sapiens): 0.37 µM
- % inhibition at top conc. (LN-229): 99.97%
- IC50 (LN-229; Homo sapiens): 1.57 µM
- % inhibition at top conc. (PC-3): 96.56%
- IC50 (PC-3; Homo sapiens): 1.38 µM
- % inhibition at top conc. (U-937): 99.99%
- IC50 (U-937; Homo sapiens): 0.46 µM
- % inhibition at top conc. (A549): 95.22%
- IC50 (A549; [1]): 2.21 µM
- % inhibition at top conc. (MOLM-13): 99.99%
- IC50 (MOLM-13; Homo sapiens): 0.21 µM
- % inhibition at top conc. (SNU-5): 99.83%
- IC50 (SNU-5; Homo sapiens): 1.64 µM
- % inhibition at top conc. (HuCCT1; CTG): 99.88%
- IC50 (HuCCT1; Homo sapiens, HuCCT-1, CTG): 1.35 µM
- % inhibition at top conc. (SNU-761): 99.35%
- IC50 (SNU-761): 9.32 µM
- % inhibition at top conc. (MDA-MB-231): 92.06%
- IC50 (MDA-MB-231; [1]): 1.81 µM
- % inhibition at top conc. (SU-DHL-6): 99.91%
- IC50 (SU-DHL-6; Homo sapiens): 0.3 µM
- % inhibition at top conc. (PANC-1): 96.79%
- IC50 (PANC-1; Homo sapiens): 5.84 µM
- % inhibition at top conc. (786-O; CTG): 99.96%
- IC50 (786-O; Homo sapiens, 786-0, CTG): 3.91 µM
- % inhibition at top conc. 5637: 99.95%
- IC50 5637: 0.82 µM
- % inhibition at top conc. (B16-F10): 99.98%
- IC50 (B16-F10; Mus musculus): 1.03 µM
- % inhibition at top conc. (NCI-H1417): 97.14%
- IC50 (NCI-H1417; Homo sapiens): 0.33 µM
- % inhibition at top conc. (MDA-MB-453): 99.93%
- IC50 (MDA-MB-453; Homo sapiens): 0.19 µM
- % inhibition at top conc. (DLD-1): 97.98%
- IC50 (DLD-1; Homo sapiens): 5.13 µM
